Measurements published in US20140031434A1, “Use of Patchouli Alcohol in Preparation of Drug Against Helicobacter Pylori” (priority 2011, published 2014).
In brackets after ≈: the same amount, converted by molar mass. Marks after values point to notes of the source that are not given here.

Experiments:
[1] = test system: Helicobacter pylori (Hp) ATCC43504; assay: In vitro anti-Helicobacter pylori effect, minimum inhibitory concentration (filter paper on Columbia Blood Agar Plate); format: cell-based; settings: Helicobacter pylori ATCC43504, 37° C. micro-aerobic, 72 hours
Candida albicans (98001) = assay: Selective inhibitory effect, in vitro MIC (broth dilution, turbidity); format: cell-based; settings: 48 h, read-out: In vitro Minimum Inhibitory Concentration MIC
Source text: (§1) Strains: Lactobacillus acidophilus, E. coli, Staphylococcus epidermidis, yeast, thermophilic Bifidobacterium, Staphylococcus aureus (26112), Alpha-Hemolytic Streptococcus (32209), Shigella (32013), Streptococcus pneumoniae (31001), Catarrhal, Corynebacterium diphtheriae (38101), Escherichia coli (44113), Pseudomonas aeruginosa (10211), Salmonella Typhi and Candida albicans (98001), Catarrhal is isolated from specimen collected from the throat in the bacterial laboratory, Candida albicans is donated by Guangzhou Institute for Food and Drug Control, all other strains are provided by Beijing Institute for Food and Drug Control; Trichophyton gypseum (4097), Trichophyton cerebriforme, Trichophyton tonsurans, Microsporum gypseum, Microsporum lanosum, Epidermophyton floccosum (previously known as Trichophyton floccosum) and Trichophyton rubrum are donated by Shanghai Huashan Hospital.
(§2) 3. Culture medium: nutrient broth, 1% dextrose broth, 1% serum broth, Sabouraud agar plate, prepared by conventional preparation method.
(§3) Drug preparation: Use nutrient broth to prepare a series of 14 drug solution in which the content of drug per ml are, 0.1 g, 0.05 g, 0.025 g . . . 1.22×10^−5 g respectively and the total volume of each test tube is 1 ml, and sterile by steam sterilization. […]

Epidermophyton floccosum = assay: Selective inhibitory effect, in vitro MIC; format: cell-based; settings: read-out: In vitro Minimum Inhibitory Concentration MIC
Source text: as §1, §2
(§4) Drug preparation: Use nutrient broth to prepare a series of 14 drug solution in which the content of drug per ml are, 0.1 g, 0.05 g, 0.025 g . . . 1.22×10^−5 g respectively and the total volume of each test tube is 1 ml, and sterile by steam sterilization. For Streptococcus testing, 1% glucose is added to the sterile drug solution, for Streptococcus pneumoniae and Corynebacterium diphtheria, 10% inactivated rabbit serum is added, and for Candida albicans, the drug solution is prepared by using Sabouraud broth.
(§5) Control: for strain control, testing bacteria is added to non-drug culture media; for drug control, no bacteria is added to the drug solution.
(§6) For each drug solution at different concentration and for bacteria control, add 1 ml of 1:2000 testing bacteria solution (8 hours cultured substance) to each tube, incubate bacteria culture at 37° C. for 18 hours and observe the results. For Candida albicans, 24 hours cultured substance is used, and incubate bacteria culture at 28° C. for 48 hours after bacteria is added to the drug solution and then observe the results. Turbidity is the indicator and visually observe each tube to determine if there is any bacterial growth.
(§7) Determine minimum inhibitory concentration (MIC): MIC is the lowest concentration of an antimicrobial that will inhibit the visible growth of a microorganism.

Microsporum gypseum = assay: Selective inhibitory effect, in vitro MIC; format: cell-based; settings: Nannizzia gypsea, read-out: In vitro Minimum Inhibitory Concentration MIC
Source text: as §1, §2, §4, §5, §6, §7

Microsporum lanosum = assay: Selective inhibitory effect, in vitro MIC; format: cell-based; settings: read-out: In vitro Minimum Inhibitory Concentration MIC
Source text: as §1, §2, §4, §5, §6, §7

[2] = test system: Trichophyton cerebriforme; assay: Selective inhibitory effect, in vitro MIC; format: cell-based; settings: read-out: In vitro Minimum Inhibitory Concentration MIC
Source text: as §1, §2, §4, §5, §6, §7

[3] = test system: Trichophyton gypseum (4097); assay: Selective inhibitory effect, in vitro MIC; format: cell-based; settings: Nannizzia gypsea, read-out: In vitro Minimum Inhibitory Concentration MIC
Source text: as §1, §2, §4, §5, §6, §7

Trichophyton rubrum = assay: Selective inhibitory effect, in vitro MIC; format: cell-based; settings: read-out: In vitro Minimum Inhibitory Concentration MIC
Source text: as §1, §2, §4, §5, §6, §7

Trichophyton tonsurans = assay: Selective inhibitory effect, in vitro MIC; format: cell-based; settings: read-out: In vitro Minimum Inhibitory Concentration MIC
Source text: as §1, §2, §4, §5, §6, §7

Helicobacter pylori [4] = assay: In vivo anti-Helicobacter pylori effect, Hp infection model, rapid urease test of pyloric antrum tissue; set-up: species or system BALB/c mice; settings: 1 time per day for 8 weeks
Method: (§8) Take SPF (specific pathogen free) BALB/c mice, equal numbers of male and female, each weight 18˜20 g; divide randomly into three groups, which are normal control group, model control group and triple therapy group. Give the corresponding experimental drugs according to table 1 below. Hp infection model is prepared by using antibiotics and oral gavage of Hp. Day 1, oral gavage 0.5 ml/mouse antibiotics mixture (0.25 ml ampicillin (20 mg/ml), 0.15 ml gentamicin (4 mg/ml), 0.1 ml azithromycin (50 mg/ml)) for three consecutive days for all testing animals, use equal volume of physiological saline for normal control group; starting from day 4, water fasting for 12 hours, oral gavage freshly prepared Hp suspended solution (0.5 ml/mouse/day, concentration 10^8 CFU/ml) for seven consecutive days, use equal volume of physiological saline for normal control group. Starting from day 11, oral gavage testing drug to the testing animals (use equal volume of physiological saline for normal control group), 1 time per day for 8 consecutive weeks. After the last drug administration, fasting for 24 hours. Take serum sample by orbital bleeding and centrifugation. Test for Helicobacter pylori urease antibody (according to the instruction of the instrument); sacrifice mice, tissue from pyloric antrum is first taken for rapid urease test and then observe for 3 minutes, and determine the test results in which strong positive refers to color change at peripheral portion from yellow to red within 1 minute, weak positive refers to color change within 3 minutes, and negative refers to no color change; the remaining stomach tissue is fixed in 10% formalin, then embed and cutting for carbol-fuchsin test, observe the Hp infection condition of the gastric mucosa and determine the condition.

Helicobacter pylori [5] = assay: In vivo anti-Helicobacter pylori effect, Hp infection model, serum urease antibody to Helicobacter pylori; set-up: species or system BALB/c mice; settings: 1 time per day for 8 weeks
Method: as §8

Helicobacter pylori [6] = assay: In vivo anti-Helicobacter pylori effect, Hp infection model, carbol-fuchsin staining of stomach tissue; set-up: species or system BALB/c mice
Method: as §8
Histopathological findings: after staining stomach tissue by carbol-fuchsin method, the Hp become […] in color, have a curved or rod shape, and mainly locate in gastric pit surface and mucus.

[7] = test system: Streptococcus pneumoniae (31001); assay: Selective inhibitory effect, in vitro MIC (broth dilution, turbidity); format: cell-based; settings: 10% inactivated rabbit serum added, 37° C., 18 hours, read-out: In vitro Minimum Inhibitory Concentration MIC
Source text: as §1, §2, §3

in vivo [8] = settings: orogastric gavage; for LD50 at 14 days: both, KM, mouse, in vivo, po, Bliss method
Method: (§9) 1.3 Testing animal: KM mice, SPF grade, weight 18-22 g, equal numbers of male and female, obtained from Animal Laboratory Center of Guangzhou University of Chinese Medicine, Certificate number: SCXK (Yue) 2008-0020.
(§10) 2.1 Preparation of drug solution: weight a predetermined quantity of patchouli alcohol and put it into a beaker, add suitable amount of peanut oil into the beaker as solvent, mix while heating until the patchouli alcohol is dissolved. Cool under room condition and then add peanut oil to the predetermined amount to obtain the patchouli alcohol solution.
(§11) 2.2 Animal grouping: Take 200 mice, weight between 18˜22 g, divided by weight and randomly divided into 4 groups, namely: orogastric gavage drug group, orogastric gavage control group (equal volume of peanut oil is used), intraperitoneal injection drug group, Intraperitoneal injection control group (equal volume of peanut oil is used), each group includes 50 mice, equal numbers of male and female, raise for one week before experiment for the mice to adapt to the environment, water fasting for 24 hours before experiment.
Set the initial dose at 7.90 g/kg, at a ratio of 1:0.75 divide 5 groups, each group includes 10 mice, equal numbers of male and female, give patchouli alcohol solution to mice once by orogastric gavage according to the dosage at 2.5 g/kg, 3.33 g/kg, 4.44 g/kg, 5.93 g/kg, 7.90 g/kg for each group. Observe consecutively for 14 days, record toxicity reaction and lethal rate every day, and calculate the medium lethal dose (LD50) by Bliss method.

in vivo [9] = settings: for LD50 at 14 days: both, KM, mouse, in vivo, Bliss method
Method: as §9, §10, §11
Set the initial dose at 6.32 g/kg, at a ratio of 1:0.75 divide 5 groups, each group includes 10 mice, equal numbers of male and female, give patchouli alcohol solution to each of the mice once by intraperitoneal injection according to the dosage at 2.0 g/kg, 2.67 g/kg, 3.56 g/kg, 4.70 g/kg, 6.32 g/kg for each group. Observe consecutively for 14 days, record toxicity reaction and lethal rate every day, and calculate the medium lethal dose (LD50) by Bliss method.

[10] = cited from earlier work
[11] = High Dose 40 mg/kg oral gavage, 10 animals
[12] = Low Dose 10 mg/kg oral gavage, 11 animals
[13] = Medium Dose 20 mg/kg oral gavage, 11 animals
[14] = 10 mg/kg oral gavage, 11 animals
[15] = 20 mg/kg oral gavage, 11 animals
[16] = 40 mg/kg oral gavage, 10 animals
[17] = mice, intraperitoneal injection
[18] = mice, intraperitoneal injection, pre-test

With `CC1(C)S[C@@H]2[C@H](NC(=O)[C@H](N)c3ccc(O)cc3)C(=O)N2[C@H]1C(=O)O` [Amoxicillin, reference compound] the “MIC (minimum inhibitory concentration)” value [1] was 120 mg/L (≈ 328 µM).
With `CC(=O)N1CCN(c2ccc(OCC3COC(Cn4ccnc4)(c4ccc(Cl)cc4Cl)O3)cc2)CC1` (stereo not drawn) [Ketoconazole] the MIC (Candida albicans (98001)) was 12200 mg/L (≈ 23000 µM), the MIC (Epidermophyton floccosum) was 383 mg/L (≈ 721 µM) and the MIC (Microsporum gypseum) was 383 mg/L (≈ 721 µM). It also gave an MIC (Microsporum lanosum) of 24500 mg/L (≈ 46100 µM), an MIC [2] of 383 mg/L (≈ 721 µM) and an MIC [3] of 383 mg/L (≈ 721 µM). For the same molecule, the MIC (Trichophyton rubrum) was 24400 mg/L (≈ 45900 µM) and the MIC (Trichophyton tonsurans) was 49000 mg/L (≈ 92200 µM).
With `C[C@H]1CC[C@@]2(O)C(C)(C)[C@@H]3CC[C@@]2(C)[C@H]1C3` [Patchouli Alcohol, (1R,4S,4aS,6R,8aS)-4,a,9,9-tetramethyloctahydro-1,6-methanonaphthalen-1(2H)-ol] the “MIC (minimum inhibitory concentration)” value [1] was 78 mg/L (≈ 351 µM), the “Strong positive (count)” value (Helicobacter pylori [4]; [11]) was 2 count and the “Total Positive Rate (%)” value (Helicobacter pylori [4]; [11]) was 40.00%. For the same molecule, the “Weak positive (count)” value (Helicobacter pylori [4]; [11]) was 2 count, the “Strong positive (count)” value (Helicobacter pylori [4]; [12]) was 0 count and the “Total Positive Rate (%)” value (Helicobacter pylori [4]; [12]) was 36.36%. The “Weak positive (count)” value (Helicobacter pylori [4]; [12]) was 4 count, the “Strong positive (count)” value (Helicobacter pylori [4]; [13]) was 0 count and the “Total Positive Rate (%)” value (Helicobacter pylori [4]; [13]) was 27.27* %. The “Weak positive (count)” value (Helicobacter pylori [4]; [13]) was 3 count, the “Positive (Count)” value (Helicobacter pylori [5]; [14]) was 0 Count and the “Positive rate (%)” value (Helicobacter pylori [5]; [14]) was 0.00** %. For the same molecule, the “Positive (Count)” value (Helicobacter pylori [5]; [15]) was 0 Count, the “Positive rate (%)” value (Helicobacter pylori [5]; [15]) was 0.00** % and the “Positive (Count)” value (Helicobacter pylori [5]; [16]) was 0 Count. For the same molecule, the “Positive rate (%)” value (Helicobacter pylori [5]; [16]) was 0.00** %, the “animals with blue Hp found in the gastric pit (positive/total)” value (Helicobacter pylori [6]; high dose group) was 6/11 and the infection rate (Helicobacter pylori [6]; high dose group) was 60%. For the same molecule, the “animals with blue Hp found in the gastric pit and the mucosal surface (positive/total)” value (Helicobacter pylori [6]; low dose group) was 9/11, the infection rate (Helicobacter pylori [6]; low dose group) was 81.81% and the “animals with blue Hp found in the gastric pit (positive/total)” value (Helicobacter pylori [6]; medium dose group) was 7/11. It also gave an infection rate (Helicobacter pylori [6]; medium dose group) of 63.63%, an MIC [7] of 510 mg/L (≈ 2290 µM) and an LD50 at 14 days (in vivo [8]; LD50 95% confidence interval lower limit, mice) of 4040 mg/kg. For the same molecule, the LD50 at 14 days (in vivo [8]; LD50 95% confidence interval upper limit, mice) was 5500 mg/kg, the LD50 at 14 days (in vivo [8]; LD50, mice, peanut oil solution) was 4690 mg/kg and the “autopsy of the dead mice” value (in vivo [8]; mice) was “no obvious abnormality is found in major organs”. The “time at which death usually occurs” value (in vivo [8]; mice) was 6˜12 hours, the maximum lethal dose (in vivo [8]; mice, pre-test) was 7900 mg/kg and the minimum lethal dose (in vivo [8]; mice, pre-test) was 2500 mg/kg. The LD50 at 14 days (in vivo [9]; LD50, mice, intraperitoneal acute toxicity (sentence prints orogastric gavage), peanut oil solution) was 3140 mg/kg, the LD50 at 14 days (in vivo [9]; ip, LD50 95% confidence interval lower limit, mice, intraperitoneal acute toxicity) was 2660 mg/kg and the LD50 at 14 days (in vivo [9]; ip, LD50 95% confidence interval upper limit, mice, intraperitoneal acute toxicity) was 3680 mg/kg. For the same molecule, the “autopsy of the dead mice” value (in vivo [9]; [17]) was “no obvious abnormality is found in major organs”, the “time at which death usually occurs” value (in vivo [9]; [17]) was 6˜12 hours and the maximum lethal dose (in vivo [9]; [18]) was 6320 mg/kg. For the same molecule, the minimum lethal dose (in vivo [9]; [18]) was 2000 mg/kg, the “solubility in ethanol and ether and common organic solvent” value ([10]; ethanol, ether, common organic solvent) was “soluble” and the solubility in water ([10]; water) was “insoluble”.
